# What was measured:
# [1] = Aminoglycoside cytotoxicity in HK-2 cells (Alamar Blue); assay type: cell-based, Human; conditions: human
# Description: (§1) Human kidney cortex proximal tubule cells (HK-2) were purchased from ATCC and maintained according to manufacturer's recommendations in Keratinocyte Serum-Free Media (SFM; Invitrogen), with 0.05 mg/ml bovine pituitary extract and 5 ng/ml of Epidermal growth factor.
# (§2) Solutions of aminoglycosides at a concentration of 50 mg/mL (both control and novel test compounds) were prepared in sterile deionized water. Before treatment of cells, the concentrated drug solutions were diluted to the appropriate concentration in Keratinocyte SFM {20, 10, 5, 2.5, 1.25, 0.6, 0.3, and 0 mM}. Pentamidine was used as a positive control.
# (§3) HK-2 cells were seeded at 2.5*10^4 cells/well density in 96-well plates in Keratinocyte SFM and placed in a 37° C. tissue culture CO2 incubator. […]. Each treatment was performed in duplicate. […] Drug solutions were aspirated and replaced with 0.1 ml of 5% Alamar Blue (Abd Serotec) cell proliferation reagent in Keratinocyte SFM. Plates were read on a Molecular Devices Gemini EM fluorometer pre-warmed at 37° C. at […]. Plates were read at 0 and 4 hrs, and were incubated at 37° C. in a CO2 incubator in between reads. The fluorescence signal at the 0 h timepoint was subtracted from that at 4 h to account for background fluorescence.
# (§4) The cytotoxicity data were reported as the amount of drug producing a 50% decrease in Alamar Blue signal relative to the no drug treatment control.
# [2] = test system: ACM1005 ATCC 19004; assay: MIC, broth microdilution; assay type: cell-based, Acinetobacter baumannii; conditions: Table 4
# Outline: (§5)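 Broth microdilution per CLSI guidelines: compounds serially diluted 2-fold in cation-adjusted Mueller Hinton broth, inoculum 5×10^5 CFU/ml from overnight colonies, 18 hours at 35° C. MIC read by turbidity at 600 nm and confirmed visually.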
# [3] = test system: Staphylococcus aureus (ATCC 29213); assay: MIC, broth microdilution
# [4] = test system: EC1001 acc(6′)-Ib; assay: microbe, parasite or virus in culture; assay type: cell-based, Escherichia coli; conditions: Table 4
# Outline: as §5
# [5] = test system: ECM6007 aac(6′) + aph(2″); assay: microbe, parasite or virus in culture; assay type: cell-based, Escherichia coli; conditions: Table 4
# Outline: as §5
# [6] = test system: Acinetobacter baumannii (ATCC 19606); assay: MIC, broth microdilution; conditions: QC strain, Table 2
# [7] = test system: ACM1006 acc(6′)-Ib; assay: microbe, parasite or virus in culture; assay type: cell-based, Acinetobacter baumannii; conditions: Table 4
# Outline: as §5
# [8] = test system: Pseudomonas aeruginosa (ATCC 27853); assay: MIC, broth microdilution
# [9] = test system: Human kidney cortex proximal tubule cells (HK-2); assay: Aminoglycoside cytotoxicity in HK-2 cells (Alamar Blue); assay type: cell-based; conditions: HK-2 cells, 50% decrease in Alamar Blue signal; read-out: IC50 @ 24 hrs
# Description: as §1, §2, §3, §4
# [10] = test system: Klebsiella pneumonia (ATCC 43816); assay: MIC, broth microdilution; conditions: QC strain, Table 2
# [11] = test system: ECM6003 rmtB; assay: microbe, parasite or virus in culture; assay type: cell-based, Escherichia coli; conditions: Table 3
# Outline: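 Broth microdilution per CLSI M7-A7 in cation-adjusted Mueller Hinton broth with 2-fold serial dilutions and 5×10^5 CFU/ml inoculum. Incubated 18 hours at 35 °C; MIC read by turbidity at 600 nm and confirmed visually.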
# [12] = test system: EC1002 aph(3′)-IV; assay: organism not typed; assay type: cell-based
# Outline: (§6)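 Broth microdilution per CLSI M7-A7 in cation-adjusted Mueller Hinton broth, 2-fold serial dilutions, inoculum 5×10^5 CFU/ml from overnight colonies. Incubated 18 hours at 35° C. MIC read as turbidity at 600 nm, confirmed visually.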
# [13] = test system: PAM3073 aac(6′)-I; assay: microbe, parasite or virus in culture; assay type: cell-based, Pseudomonas aeruginosa; conditions: Table 5
# Outline: as §5
# [14] = test system: PAM3072 aac(6′)-II; assay: microbe, parasite or virus in culture; assay type: cell-based, Pseudomonas aeruginosa; conditions: Table 5
# Outline: as §5
# [15] = test system: ECM6009 aac(3)-II; assay: microbe, parasite or virus in culture; assay type: cell-based, Escherichia coli
# Outline: as §6
# [16] = test system: ECM6010 ant(2″)-I; assay: microbe, parasite or virus in culture; assay type: cell-based, Escherichia coli
# Outline: as §6
# [17] = test system: ECM6011 aph(3′)-I; assay: microbe, parasite or virus in culture; assay type: cell-based, Escherichia coli
# Outline: as §6
# [18] = test system: ECM6006 aph(3′)-III; assay: microbe, parasite or virus in culture; assay type: cell-based, Escherichia coli
# Outline: as §6
# [19] = test system: Sa 287 aac(6′) + aph(2″); assay: microbe, parasite or virus in culture; assay type: cell-based, Staphylococcus aureus; conditions: Table 5
# Outline: as §5
# [20] = test system: Escherichia coli (ATCC 25922); assay: MIC, broth microdilution
compound,measurement,setting,value
"NCC[C@H](O)C(=O)N[C@@H]1C[C@H](N)[C@@H](O[C@H]2O[C@H](CN)CC[C@H]2N)[C@H](O)[C@H]1O[C@H]1O[C@H](CO)[C@@H](O)[C@H](N)[C@H]1O [Arbekacin, reference compound]",IC50 at 24 h,[1],> 20 mM
Gentamicin [reference compound],Compound MIC on Bacterial Strains: Acinetobacter baumannii ACM1005 ATCC 19004,[2],A (MIC of 1 μg/ml or less)
same,Compound MIC on Bacterial Strains: S. aureus ATCC 29213,"[3]; QC strain, Table 2",A (MIC of 1 μg/ml or less)
same,Compound MIC on Bacterial Strains: Staphylococcus aureus SAM1000 ATCC 29213,[3]; Table 5,A (MIC of 1 μg/ml or less)
same,Compound MIC on Bacterial Strains: Escherichia coli EC1001 acc(6′)-Ib,[4],B (MIC of greater than 1 μg/ml to 8 μg/ml)
same,Compound MIC on Bacterial Strains: Escherichia coli ECM6007 aac(6′) + aph(2″),[5],B (MIC of greater than 1 μg/ml to 8 μg/ml)
same,Compound MIC on Bacterial Strains: A. baumannii ATCC 19606,[6],C (MIC of greater than 8 μg/ml)
same,Compound MIC on Bacterial Strains: Acinetobacter baumannii ACM1006 acc(6′)-Ib,[7],B (MIC of greater than 1 μg/ml to 8 μg/ml)
same,Compound MIC on Bacterial Strains: P. aeruginosa ATCC 27853,"[8]; QC strain, Table 2",A (MIC of 1 μg/ml or less)
same,Compound MIC on Bacterial Strains: Pseudomonas aeruginosa PAM3034 ATCC 27853,[8]; Table 5,A (MIC of 1 μg/ml or less)
same,IC50,[9],> 20 mM
same,Compound MIC on Bacterial Strains: K. pneumonia ATCC 43816,[10],A (MIC of 1 μg/ml or less)
same,Compound MIC on Bacterial Strains: ECM6003 rmtB,[11],C (MIC of greater than 8 μg/ml)
same,Compound MIC on Bacterial Strains: EC1002 aph(3′)-IV,[12],B (key: A: MIC of 1 μg/ml or less; B: MIC of greater than 1 μg/ml to 8 μg/ml; MIC of greater than 8 μg/ml)
same,Compound MIC on Bacterial Strains: Pseudomonas aeruginosa PAM3073 aac(6′)-I,[13],B (MIC of greater than 1 μg/ml to 8 μg/ml)
same,Compound MIC on Bacterial Strains: Pseudomonas aeruginosa PAM3072 aac(6′)-II,[14],C (MIC of greater than 8 μg/ml)
same,Compound MIC on Bacterial Strains: ECM6009 aac(3)-II,[15],C (key: A: MIC of 1 μg/ml or less; B: MIC of greater than 1 μg/ml to 8 μg/ml; MIC of greater than 8 μg/ml)
same,Compound MIC on Bacterial Strains: ECM6010 ant(2″)-I,[16],C (key: A: MIC of 1 μg/ml or less; B: MIC of greater than 1 μg/ml to 8 μg/ml; MIC of greater than 8 μg/ml)
same,Compound MIC on Bacterial Strains: ECM6011 aph(3′)-I,[17],B (key: A: MIC of 1 μg/ml or less; B: MIC of greater than 1 μg/ml to 8 μg/ml; MIC of greater than 8 μg/ml)
same,Compound MIC on Bacterial Strains: ECM6006 aph(3′)-III,[18],B (key: A: MIC of 1 μg/ml or less; B: MIC of greater than 1 μg/ml to 8 μg/ml; MIC of greater than 8 μg/ml)
same,Compound MIC on Bacterial Strains: Staphylococcus aureus Sa 287 aac(6′) + aph(2″),[19],C (MIC of greater than 8 μg/ml)
same,Compound MIC on Bacterial Strains: E. coli ATCC 25922,"[20]; QC strain, Table 2",A (MIC of 1 μg/ml or less)
same,Compound MIC on Bacterial Strains: ECM6000 ATCC 25922,[20]; Table 3,A (MIC of 1 μg/ml or less)
same,Compound MIC on Bacterial Strains: Escherichia coli ECM6000 ATCC 25922,[20]; Table 4,A (MIC of 1 μg/ml or less)

# From patent publication US8906868B2, “Aminoglycoside derivatives” (Rempex Pharmaceuticals, Inc., priority 2010, dated 2014)
